# Measurements: patent US11273217B2, “Cancer treatment composition combining anti-CD26 antibody and other anticancer agent” (Y's AC Co., Ltd., priority 2015, dated 2022)
# Tests used:
# MESO1 cells = assay: MTT cell growth assay, MESO1; assay type: cell-based; settings: day 2
# Description: MESO1 or H2452 cells (2×10^3 cells/well) were inoculated to a 96-well plate. One hour later, cisplatin or pemetrexed was added thereto at 10^−9, 10^−8, 10^−7, 10^−6, 10^−5, or 10^−4 M (n=6). At day 2, MTT assay was conducted.
# MESO1 cells (2×10^3 cells/well) were inoculated to a 96-well plate. One hour later, the combination of 0.3, 3, or 10 μM cisplatin and 0.1, 3, or 10 μg/ml YS110, or the combination of 0.03, 0.3, or 1 μM pemetrexed and 0.1, 3, or 10 μg/ml YS110 was added thereto. At day 2, MTT assay was conducted. Significant difference was tested by two-tailed t-test (vs Cont).
# MESO1 cells (2×10^3 cells/well) or H2452 cells (2×10^3 cells/well) were inoculated to a 96-well plate. One hour later, 0.3 μM cisplatin-0.1 μM pemetrexed combination, or YS110 (10 μg/ml) plus the 0.3 μM cisplatin-0.1 μM pemetrexed combination was added thereto (n=6). At day 2, MTT assay was conducted. Significant difference was tested by two-tailed t-test (vs Cont).
# (§1) Gemcitabine was studied for its effect on the growth of a mesothelioma cell line. A mesothelioma cell line MESO1, JMN, H2452, or H226 (2×10^3 cells/well) was inoculated to a 96-well plate. One hour later, gemcitabine (10^−9, 10^−8, 10^−7, 10^−6, 10^−5, or 10^−4 M) was added thereto (N=6). 2 days later, MTT assay was conducted. Significant difference was tested by two-tailed t-test (vs Cont).
# (§2) MESO1 cells (2×10^3 cells/well) were inoculated to a 96-well plate. One hour later, gemcitabine (0, 10^−8, 3×10^−8, or 10^−7 M) and YS110 (0, 1, 3, or 10 μg/ml) were added thereto in combination. At day 2, MTT assay was conducted. Significant difference was tested by two-tailed t-test (vs Cont). Next, interaction in concomitant use of medications was studied (n=6). The interaction between YS110 and gemcitabine used concomitantly was analyzed by two-way ANOVA.
# (§3) MESO1, JMN, H2452 or H226 cells (2×10^3 cells/well were inoculated to a 96-well plate. One hour later, 3×10^−8 M or 10^−7 M gemcitabine was added thereto by concomitant use with the combination of cisplatin (0, 0.1, 0.3, or 1 μM) and pemetrexed (0, 0.03, 0.1, or 0.3 μM) (n=6). At day 2, MTT assay was conducted.
# The growth inhibitory effects of cisplatin (10^−9 to 10^−4 M) and pemetrexed (10^−9 to 10^−4 M) were compared using the MESO1 and JMN cell lines.
# (§4) The growth inhibitory effect of gemcitabine (10^−9 to 10^−4 M) was compared using MESO1, H2452, JMN, and H226 cell lines.
# H226 cells = assay: MTT cell growth assay, H226; assay type: cell-based; settings: gemcitabine 10^−8, 3×10^−8, or 10^−7 M and YS110 1, 3, or 10 μg/ml; day 2
# Description: as §1
# as §2, with “H226” for “MESO1”
# as §3, §4
# JMN cells = assay: In vivo JMN cell growth in SCID mice (tumor weight); settings: YS110 10 mg/kg, intraperitoneal
# H2452 cells = assay: In vivo H2452 cell growth in SCID mice (tumor weight); settings: YS110 10 mg/kg, cisplatin 0.5 mg/kg, pemetrexed 50 mg/kg, intraperitoneal, days 1 and 4; tumor weight day 7
# Description: H2452 cells (3×10^5 cells/animal) were subcutaneously transplanted to the backs of female SCID mice. The day of transplantation was defined as day 0. YS110 (10 mg/kg) alone, cisplatin (0.5 mg/kg)-pemetrexed (50 mg/kg) used concomitantly, or YS110 (10 mg/kg) used concomitantly with the cisplatin-pemetrexed concomitant use was intraperitoneally administered to the mice twice (days 1 and 4). At day 7, their tumors were excised, and the tumor weights were measured. Significant difference was tested by two-tailed t-test (vs Cont).
# HCC827 cells = assay: In vivo growth of CD26-positive lung cancer cell line HCC827 in SCID mice (tumor weight); settings: days 1 and 4, day 7
# Description: HCC827 cells (1.8×10^5 cells/animal) were subcutaneously transplanted to the backs of female SCID mice. The day of transplantation was defined as day 0. At day 1, YS110 (10 mg/kg) alone, cisplatin (0.5 mg/kg)+pemetrexed (50 mg/kg), or YS110 (10 mg/kg)+cisplatin (0.5 mg/kg)+pemetrexed (50 mg/kg) was intraperitoneally administered to the mice. At day 4, the same amount of the same drug was administered by the same method as in day 1 (n=6). At day 7, their tumors were excised, and the tumor weights were measured. Significant difference was tested by two-tailed t-test (vs Cont).
# HCC827 cells (0.9×10^5 cells/animal) were subcutaneously transplanted to the backs of female SCID mice. The day of transplantation was defined as day 0. YS110 (10 mg/kg, intraperitoneal administration), gefitinib (100 mg/kg, oral administration), or YS110 (10 mg/kg, intraperitoneal administration)+gefitinib (100 mg/kg, oral administration) was administered to the mice twice (days 1 and 4). At day 7, their tumors were excised, and the tumor weights were measured. Significant difference was tested by two-tailed t-test (vs Cont).
substance,measurement,setting,value
YS110: humanized anti-CD26 antibody designed based on anti-CD26 mouse antibody 14D10; SEQ ID NO: 17 and 18,effect of YS110 on the cell growth inhibitory effect of pemetrexed,"MESO1 cells; 0.03, 0.3, or 1 μM pemetrexed and 0.1, 3, or 10 μg/ml YS110",potentiated
same,effect of YS110 on the cell growth inhibitory effect of cisplatin,"MESO1 cells; 0.3, 3, or 10 μM cisplatin and 0.1, 3, or 10 μg/ml YS110",potentiated
same,effect of YS110 on the cell growth inhibitory effect of cisplatin-pemetrexed,MESO1 cells; YS110 10 μg/ml plus 0.3 μM cisplatin-0.1 μM pemetrexed,potentiated
same,effect of YS110 on the growth inhibitory effect of gemcitabine,"MESO1 cells; gemcitabine 10^−8, 3×10^−8, or 10^−7 M and YS110 1, 3, or 10 μg/ml",potentiated
same,effect of YS110 on the growth inhibitory effect of gemcitabine,H226 cells,potentiated
same,effect of YS110 on the in vivo tumor growth inhibitory effect of cisplatin,"JMN cells; cisplatin 0.5 mg/kg, days 1 and 4, tumor weight day 7",potentiated
same,effect of YS110 on the in vivo tumor growth inhibitory effect of cisplatin-pemetrexed,"JMN cells; cisplatin 0.5 mg/kg, pemetrexed 50 mg/kg, days 1 and 4, tumor weight day 7",potentiated
same,inhibitory effect (tumor weight),"JMN cells; gemcitabine 10 mg/kg, days 2 and 4, day 7",34%
same,effect of YS110 on the in vivo tumor growth inhibitory effect of pemetrexed,"JMN cells; pemetrexed 50 mg/kg, days 1 and 4, tumor weight day 7",potentiated
same,effect of YS110 on the in vivo tumor growth inhibitory effect of cisplatin-pemetrexed,H2452 cells,potentiated
same,effect of YS110 on the effect of gefitinib (tumor weight),"HCC827 cells; YS110 10 mg/kg intraperitoneal, gefitinib 100 mg/kg oral",potentiated
same,effect of YS110 on the effect of cisplatin-pemetrexed (tumor weight),"HCC827 cells; YS110 10 mg/kg, cisplatin 0.5 mg/kg, pemetrexed 50 mg/kg, intraperitoneal",potentiated
